Test results reported in ChEMBL document CHEMBL6127078, “Discovery of 7-(1-methyl-1H-pyrazol-4-yl)-1,6-naphthyridine derivatives as potent inhibitors of rearranged during transfection (RET) and RET solvent-front mutants for overcoming selpercatinib resistance” (Eur J Med Chem, 2024).

Experiments:
[1] = Cmax in male Sprague-Dawley rat at 1 mg/kg, iv; format: ADME, organism-based; conditions: in vivo
[2] = AUC (0 to infinity) in male Sprague-Dawley rat at 5 mg/kg, IG; format: ADME, organism-based; conditions: in vivo, po
[3] = biological target: Proto-oncogene tyrosine-protein kinase receptor Ret (Homo sapiens, UniProt P07949, V804M); test: Inhibition of RET V804M mutant (unknown origin) by FRET-based ZLyte kinase assay
[4] = Toxicity in mouse allografted with mouse BaF3 cells harbouring KIF5B-RET G810R mutant assessed as drug tolerance at 10 to 30 mg/kg BID measured upto 14 days; format: organism-based; conditions: in vivo, 336 h, dose 10-30 mg/kg, time < 14 day
[5] = biological target: Vascular endothelial growth factor receptor 2 (Homo sapiens, UniProt P35968); test: Inhibition of KDR (unknown origin) by FRET-based Z-Lyte kinase assay
[6] = Toxicity in mouse allografted with mouse BaF3 cells harbouring KIF5B-RET-wild type assessed as drug tolerance at 10 mg/kg BID measured upto 14 days; format: organism-based; conditions: in vivo, 336 h, time < 14 day
[7] = Apparent volume of distribution in male Sprague-Dawley rat at 1 mg/kg, iv; format: ADME, organism-based; conditions: in vivo, read-out: Vz
[8] = biological target: Tyrosine-protein kinase JAK2 (Homo sapiens, UniProt O60674); test: Inhibition of JAK2 (unknown origin) by FRET-based Z-Lyte kinase assay
[9] = Half life in male Sprague-Dawley rat at 5 mg/kg, IG; format: ADME, organism-based; conditions: in vivo, po
[10] = biological target: Proto-oncogene tyrosine-protein kinase receptor Ret (Homo sapiens, UniProt P07949); test: Inhibition of wild type RET (unknown origin) by FRET-based ZLyte kinase assay
[11] = biological target: Proto-oncogene tyrosine-protein kinase receptor Ret (Homo sapiens, UniProt P07949, G810C); test: Inhibition of RET G810C mutant (unknown origin) by FRET-based ZLyte kinase assay
[12] = AUC (0 to infinity) in male Sprague-Dawley rat at 1 mg/kg, iv; format: ADME, organism-based; conditions: in vivo
[13] = biological target: T1, Receptor-type tyrosine-protein kinase FLT3 (Homo sapiens, UniProt P36888); test: Inhibition of FLT3 (unknown origin) by FRET-based Z-Lyte kinase assay
T1 sequence (P36888 whole entry): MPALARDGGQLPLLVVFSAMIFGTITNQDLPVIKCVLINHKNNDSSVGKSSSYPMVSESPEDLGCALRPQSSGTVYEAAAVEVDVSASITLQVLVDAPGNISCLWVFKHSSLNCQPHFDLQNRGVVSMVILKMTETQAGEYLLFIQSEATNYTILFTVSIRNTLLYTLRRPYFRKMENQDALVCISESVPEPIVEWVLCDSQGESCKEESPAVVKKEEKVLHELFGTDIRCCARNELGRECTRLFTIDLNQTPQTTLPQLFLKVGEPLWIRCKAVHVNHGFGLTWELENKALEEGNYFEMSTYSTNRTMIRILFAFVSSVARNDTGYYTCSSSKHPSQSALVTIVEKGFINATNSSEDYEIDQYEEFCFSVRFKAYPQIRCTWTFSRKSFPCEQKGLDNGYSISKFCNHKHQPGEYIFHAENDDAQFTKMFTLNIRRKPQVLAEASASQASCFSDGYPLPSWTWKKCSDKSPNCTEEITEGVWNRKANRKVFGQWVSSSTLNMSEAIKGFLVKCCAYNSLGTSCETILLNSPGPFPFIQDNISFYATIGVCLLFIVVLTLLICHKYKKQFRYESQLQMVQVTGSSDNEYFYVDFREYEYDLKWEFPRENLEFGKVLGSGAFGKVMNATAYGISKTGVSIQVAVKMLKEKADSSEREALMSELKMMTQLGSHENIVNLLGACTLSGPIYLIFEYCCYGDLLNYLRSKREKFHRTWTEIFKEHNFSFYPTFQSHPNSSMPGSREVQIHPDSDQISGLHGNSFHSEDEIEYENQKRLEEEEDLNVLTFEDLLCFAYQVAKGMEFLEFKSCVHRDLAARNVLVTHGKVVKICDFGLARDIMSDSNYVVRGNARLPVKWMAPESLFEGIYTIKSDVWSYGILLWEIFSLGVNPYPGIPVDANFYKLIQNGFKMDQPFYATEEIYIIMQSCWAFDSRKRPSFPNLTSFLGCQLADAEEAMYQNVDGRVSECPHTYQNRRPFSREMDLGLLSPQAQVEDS

[14] = Toxicity in mouse allografted with mouse BaF3 cells harbouring KIF5B-RET G810R mutant assessed as mortality at 10 to 30 mg/kg BID measured upto 14 days; format: organism-based; conditions: in vivo, 336 h, dose 10-30 mg/kg, time < 14 day
[15] = biological target: Epithelial discoidin domain-containing receptor 1 (Homo sapiens, UniProt Q08345); test: Inhibition of DDR1 (unknown origin) by FRET-based Z-Lyte kinase assay
[16] = Half life in male Sprague-Dawley rat at 1 mg/kg, iv; format: ADME, organism-based; conditions: in vivo
[17] = Clearance in male Sprague-Dawley rat at 5 mg/kg, IG; format: ADME, organism-based; conditions: in vivo, po
[18] = biological target: Vascular endothelial growth factor receptor 1 (Homo sapiens, UniProt P17948); test: Inhibition of FLT1 (unknown origin) by FRET-based Z-Lyte kinase assay
[19] = biological target: Proto-oncogene tyrosine-protein kinase receptor Ret (Homo sapiens, UniProt P07949, M918T); test: Inhibition of RET M918T mutant (unknown origin) by FRET-based ZLyte kinase assay
[20] = Toxicity in mouse allografted with mouse BaF3 cells harbouring KIF5B-RET-wild type assessed as effect on body weight loss at 10 mg/kg BID measured upto 14 days; format: organism-based; conditions: in vivo, 336 h, time < 14 day
[21] = Toxicity in mouse allografted with mouse BaF3 cells harbouring KIF5B-RET-wild type assessed as mortality at 10 mg/kg BID measured upto 14 days; format: organism-based; conditions: in vivo, 336 h, time < 14 day
[22] = Oral bioavailability in male Sprague-Dawley rat at 5 mg/kg, IG; format: ADME, organism-based; conditions: in vivo
[23] = Tmax in male Sprague-Dawley rat at 5 mg/kg, IG; format: ADME, organism-based; conditions: in vivo, po
[24] = biological target: Proto-oncogene tyrosine-protein kinase receptor Ret (Homo sapiens, UniProt P07949, G810S); test: Inhibition of RET G810S mutant (unknown origin) by FRET-based ZLyte kinase assay
[25] = Toxicity in mouse allografted with mouse BaF3 cells harbouring KIF5B-RET G810R mutant assessed as effect on body weight loss at 10 to 30 mg/kg BID measured upto 14 days; format: organism-based; conditions: in vivo, 336 h, dose 10-30 mg/kg, time < 14 day
[26] = biological target: Fibroblast growth factor receptor 4 (Homo sapiens, UniProt P22455); test: Inhibition of FGFR4 (unknown origin) by FRET-based Z-Lyte kinase assay
[27] = biological target: Vascular endothelial growth factor receptor 3 (Homo sapiens, UniProt P35916); test: Inhibition of FLT4 (unknown origin) by FRET-based Z-Lyte kinase assay
[28] = Clearance in male Sprague-Dawley rat at 1 mg/kg, iv; format: ADME, organism-based; conditions: in vivo
[29] = Apparent volume of distribution in male Sprague-Dawley rat at 5 mg/kg, IG; format: ADME, organism-based; conditions: in vivo, po
[30] = Cmax in male Sprague-Dawley rat at 5 mg/kg, IG; format: ADME, organism-based; conditions: in vivo, po
[31] = biological target: Proto-oncogene tyrosine-protein kinase receptor Ret (Homo sapiens, UniProt P07949, V804L); test: Inhibition of RET V804L mutant (unknown origin) by FRET-based ZLyte kinase assay
[32] = biological target: Proto-oncogene tyrosine-protein kinase receptor Ret (Homo sapiens, UniProt P07949, G810R); test: Inhibition of RET G810R mutant (unknown origin) by FRET-based ZLyte kinase assay

Chain of Vascular endothelial growth factor receptor 2 (P35968 whole entry): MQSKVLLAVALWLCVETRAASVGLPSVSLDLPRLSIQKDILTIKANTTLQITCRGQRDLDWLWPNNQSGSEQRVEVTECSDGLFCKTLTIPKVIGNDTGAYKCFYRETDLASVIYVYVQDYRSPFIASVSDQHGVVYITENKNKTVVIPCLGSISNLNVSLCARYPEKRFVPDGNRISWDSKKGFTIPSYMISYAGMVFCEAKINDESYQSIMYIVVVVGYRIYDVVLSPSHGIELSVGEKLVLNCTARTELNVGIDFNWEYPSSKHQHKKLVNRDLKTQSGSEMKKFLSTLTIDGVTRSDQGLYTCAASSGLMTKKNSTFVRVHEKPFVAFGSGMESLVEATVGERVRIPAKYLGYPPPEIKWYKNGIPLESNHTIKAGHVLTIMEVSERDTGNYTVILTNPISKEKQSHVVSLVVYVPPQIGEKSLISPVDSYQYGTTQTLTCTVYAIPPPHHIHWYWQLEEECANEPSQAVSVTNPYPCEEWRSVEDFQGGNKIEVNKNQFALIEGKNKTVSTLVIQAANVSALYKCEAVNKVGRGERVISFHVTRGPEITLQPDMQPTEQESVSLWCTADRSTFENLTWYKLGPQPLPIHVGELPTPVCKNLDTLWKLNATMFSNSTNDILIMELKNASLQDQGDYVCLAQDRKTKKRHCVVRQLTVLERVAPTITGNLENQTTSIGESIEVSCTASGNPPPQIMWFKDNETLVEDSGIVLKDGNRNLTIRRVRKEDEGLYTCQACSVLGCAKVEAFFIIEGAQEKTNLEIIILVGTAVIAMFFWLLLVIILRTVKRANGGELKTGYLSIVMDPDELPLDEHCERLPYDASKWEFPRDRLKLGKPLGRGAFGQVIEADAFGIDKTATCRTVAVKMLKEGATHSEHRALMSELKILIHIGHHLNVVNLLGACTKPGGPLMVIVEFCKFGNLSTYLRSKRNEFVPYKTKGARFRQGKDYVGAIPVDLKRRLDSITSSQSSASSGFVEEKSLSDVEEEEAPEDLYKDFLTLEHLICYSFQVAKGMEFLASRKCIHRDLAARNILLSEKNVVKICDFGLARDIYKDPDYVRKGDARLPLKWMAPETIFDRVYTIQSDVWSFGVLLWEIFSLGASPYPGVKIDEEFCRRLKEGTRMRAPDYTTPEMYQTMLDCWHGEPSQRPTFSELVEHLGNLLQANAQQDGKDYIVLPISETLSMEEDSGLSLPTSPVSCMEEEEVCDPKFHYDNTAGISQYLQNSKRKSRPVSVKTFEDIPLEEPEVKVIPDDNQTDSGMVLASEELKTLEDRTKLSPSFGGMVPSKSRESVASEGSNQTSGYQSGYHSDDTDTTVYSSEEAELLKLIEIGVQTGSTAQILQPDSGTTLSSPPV
Chain of Vascular endothelial growth factor receptor 1 (P17948 whole entry): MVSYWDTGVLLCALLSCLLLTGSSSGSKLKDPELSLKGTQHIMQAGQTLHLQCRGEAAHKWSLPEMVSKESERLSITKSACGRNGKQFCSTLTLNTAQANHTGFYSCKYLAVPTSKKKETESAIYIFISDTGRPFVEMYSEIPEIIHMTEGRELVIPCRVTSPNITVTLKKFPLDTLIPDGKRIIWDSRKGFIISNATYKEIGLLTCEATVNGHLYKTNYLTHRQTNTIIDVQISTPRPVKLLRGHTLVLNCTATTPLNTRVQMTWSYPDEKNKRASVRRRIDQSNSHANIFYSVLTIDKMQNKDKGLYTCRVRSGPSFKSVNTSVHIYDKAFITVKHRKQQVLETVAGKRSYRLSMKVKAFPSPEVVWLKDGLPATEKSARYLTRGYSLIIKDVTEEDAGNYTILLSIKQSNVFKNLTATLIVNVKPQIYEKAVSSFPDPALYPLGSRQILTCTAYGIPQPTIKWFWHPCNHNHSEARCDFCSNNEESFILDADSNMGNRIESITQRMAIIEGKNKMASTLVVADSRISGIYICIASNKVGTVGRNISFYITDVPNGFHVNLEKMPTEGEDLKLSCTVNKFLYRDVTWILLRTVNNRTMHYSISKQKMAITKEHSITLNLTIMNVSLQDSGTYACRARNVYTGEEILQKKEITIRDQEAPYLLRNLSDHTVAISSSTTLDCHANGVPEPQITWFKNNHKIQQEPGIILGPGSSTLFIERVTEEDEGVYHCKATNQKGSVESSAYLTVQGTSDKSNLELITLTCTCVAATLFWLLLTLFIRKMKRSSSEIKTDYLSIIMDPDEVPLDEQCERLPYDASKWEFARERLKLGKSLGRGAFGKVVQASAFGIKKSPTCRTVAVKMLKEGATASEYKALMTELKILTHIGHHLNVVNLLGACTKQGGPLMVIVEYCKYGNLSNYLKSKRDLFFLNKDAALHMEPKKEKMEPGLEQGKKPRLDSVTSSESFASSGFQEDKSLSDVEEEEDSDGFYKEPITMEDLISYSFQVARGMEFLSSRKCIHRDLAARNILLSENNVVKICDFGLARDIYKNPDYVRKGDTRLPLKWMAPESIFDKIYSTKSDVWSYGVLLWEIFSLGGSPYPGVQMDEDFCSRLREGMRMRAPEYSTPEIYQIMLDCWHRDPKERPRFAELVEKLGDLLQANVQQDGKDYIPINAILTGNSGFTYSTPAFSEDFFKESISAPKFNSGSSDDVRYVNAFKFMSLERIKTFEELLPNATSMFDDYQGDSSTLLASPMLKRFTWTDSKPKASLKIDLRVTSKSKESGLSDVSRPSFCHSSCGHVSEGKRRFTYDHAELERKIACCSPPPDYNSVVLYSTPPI
Chain of Epithelial discoidin domain-containing receptor 1 (Q08345 whole entry, the tested form may be a part): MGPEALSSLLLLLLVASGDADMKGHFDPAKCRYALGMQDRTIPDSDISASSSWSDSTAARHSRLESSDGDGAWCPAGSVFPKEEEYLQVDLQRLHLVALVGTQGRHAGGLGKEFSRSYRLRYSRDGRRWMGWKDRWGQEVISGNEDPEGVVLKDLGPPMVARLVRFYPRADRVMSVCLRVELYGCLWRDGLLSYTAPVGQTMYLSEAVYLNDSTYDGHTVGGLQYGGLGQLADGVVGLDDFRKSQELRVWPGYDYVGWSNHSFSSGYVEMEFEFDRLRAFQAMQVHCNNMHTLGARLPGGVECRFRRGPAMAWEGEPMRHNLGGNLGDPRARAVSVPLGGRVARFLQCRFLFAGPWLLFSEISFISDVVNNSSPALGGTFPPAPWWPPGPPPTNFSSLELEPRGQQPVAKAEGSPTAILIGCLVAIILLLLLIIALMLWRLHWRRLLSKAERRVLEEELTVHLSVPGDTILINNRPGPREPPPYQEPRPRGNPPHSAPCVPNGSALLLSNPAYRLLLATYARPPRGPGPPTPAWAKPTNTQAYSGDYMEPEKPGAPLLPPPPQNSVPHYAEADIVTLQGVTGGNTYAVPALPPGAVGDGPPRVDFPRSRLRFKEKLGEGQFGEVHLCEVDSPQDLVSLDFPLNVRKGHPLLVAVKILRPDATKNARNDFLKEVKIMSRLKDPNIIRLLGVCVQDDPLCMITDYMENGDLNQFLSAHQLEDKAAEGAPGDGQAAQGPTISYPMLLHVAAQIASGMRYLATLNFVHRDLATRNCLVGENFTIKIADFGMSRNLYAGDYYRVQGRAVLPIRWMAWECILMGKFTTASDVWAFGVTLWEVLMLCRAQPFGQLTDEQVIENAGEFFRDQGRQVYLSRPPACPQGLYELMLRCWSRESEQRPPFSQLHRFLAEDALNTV
Chain of Fibroblast growth factor receptor 4 (P22455 whole entry): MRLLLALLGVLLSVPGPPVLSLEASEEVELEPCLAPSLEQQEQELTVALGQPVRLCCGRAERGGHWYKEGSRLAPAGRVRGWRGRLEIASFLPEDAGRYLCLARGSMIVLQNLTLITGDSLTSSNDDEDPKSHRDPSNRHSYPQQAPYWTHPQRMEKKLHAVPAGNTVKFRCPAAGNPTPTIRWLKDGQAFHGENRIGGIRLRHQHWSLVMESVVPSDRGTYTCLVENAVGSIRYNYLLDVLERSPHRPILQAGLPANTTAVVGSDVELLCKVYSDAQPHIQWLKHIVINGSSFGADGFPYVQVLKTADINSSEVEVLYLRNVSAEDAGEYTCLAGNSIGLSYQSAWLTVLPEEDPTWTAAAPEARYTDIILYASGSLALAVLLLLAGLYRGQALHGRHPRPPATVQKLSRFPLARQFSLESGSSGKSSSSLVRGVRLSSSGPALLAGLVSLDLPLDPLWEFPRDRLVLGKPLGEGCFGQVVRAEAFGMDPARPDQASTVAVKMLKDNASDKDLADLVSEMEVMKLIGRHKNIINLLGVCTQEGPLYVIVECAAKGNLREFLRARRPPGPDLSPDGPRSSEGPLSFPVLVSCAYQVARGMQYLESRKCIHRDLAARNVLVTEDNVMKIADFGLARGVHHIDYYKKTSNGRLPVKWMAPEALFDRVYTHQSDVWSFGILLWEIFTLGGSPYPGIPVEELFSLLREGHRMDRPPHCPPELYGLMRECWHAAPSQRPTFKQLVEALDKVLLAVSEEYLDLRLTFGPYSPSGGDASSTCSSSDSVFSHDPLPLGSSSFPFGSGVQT

COc1ccc(CN2C3CC2CN(c2ccc(-c4nc(-c5cnn(C)c5)cc5ncccc45)cn2)C3)cc1C#N
Cmax [1]: 265 ng/mL
AUC(0-inf) [2]: 686 ng·h/mL
IC50 [3]: 1.8 nM
Activity [4]: Non-Toxic
IC50 [5]: 27.3 nM
Activity [6]: Non-Toxic
Vd [7]: 17.2 L/kg
IC50 [8]: 2650 nM
half-life [9]: 4.6 h
IC50 [10]: 3.2 nM
IC50 [11]: 7.1 nM
AUC(0-inf) [12]: 451 ng·h/mL
IC50 [13]: 52.7 nM
Activity [14]: Non-Toxic
IC50 [15]: 334 nM
half-life [16]: 5 h
CL/F [17]: 122 mL/min/kg
IC50 [18]: 34.9 nM
IC50 [19]: 0.4 nM
Activity [20]: Non-Toxic
Activity [21]: Non-Toxic
bioavailability [22]: 30.4%
Tmax [23]: 1.6 h
IC50 [24]: 5.7 nM
Activity [25]: Non-Toxic
IC50 [26]: 113 nM
IC50 [27]: 5.1 nM
clearance [28]: 40 mL/min/kg
Vz [29]: 48.1 L/kg
Cmax [30]: 140 ng/mL
IC50 [31]: 0.2 nM
IC50 [32]: 8.3 nM
